Results on twelve compounds are retold here after patent US10344026B2, “Compositions and methods of targeting mutant K-ras” (NANTBIO, INC., priority 2017, dated 2019).

A value given as a limit tells only on which side of the number the result lay.

Type in all cases: cell-based
The subject of one experiment is HCT116-G31D. The experiment is described as follows: Viability assay (CellTiterBlue, 72 hr) HCT116. As to conditions: Homo sapiens, HCT-116, GI50, CellTiterBlue, HCT116 K-Ras G13D, read-out: 72 hr Cell Viability HCT116 (G13D). The method, then:
(§1) Viability assays were performed on exemplary compounds and Table 2 below lists exemplary results for selected compounds tested on K-Ras wild type cell lines (Ishikawa, U87-MG, HCC827, and A375) and various K-Ras mutant cell lines (Panc1-G12D; Panc10.05-G12D; HCT116-G31D). Results are expressed in μM and corresponding structures are shown in FIGS. 2A-2G and Examples 1-152, above.
(§2) Cells are counted and seeded at 1000 cells/36 ul medium/well into 384-well microplates. Cells are returned to 37° C. CO2 incubator for 18 hr. Drug is made as 200× in DMSO and diluted into medium to 10×. To each well is added 4 ul 10× drug, and plates are returned to the incubator. Final assay DMSO concentration is 0.5%. After 72 hr, 8 ul CellTiterBlue (Promega) is added to each well. After 3 hr, fluorescence (Ex550/Em590) is determined on the Victor Plate Reader (Perkin Elmer). Assay range is determined by DMSO control (100% viability) and 100 uM tamoxifen (0% viability). GI50 values are calculated using Graphpad Prism.

Experiment [1] concerns U87-MG (K-Ras wild type cell line). The experiment is described as follows: Viability assay (CellTiterBlue, 72 hr) U87-MG. As to conditions: Homo sapiens, U-87 MG, GI50, CellTiterBlue, U87-MG K-Ras wild-type. The protocol: as §1, §2
Experiment [2] concerns HCC827 (K-Ras wild type cell line). The experiment is described as follows: Viability assay (CellTiterBlue, 72 hr) HCC827. As to conditions: Homo sapiens, GI50, CellTiterBlue, HCC827 K-Ras wild-type. The method, then: as §1, §2
The test system of a further experiment is Panc10.05-G12D. The experiment is described as follows: Viability assay (CellTiterBlue, 72 hr) Panc10.05. As to conditions: Homo sapiens, Panc1005, GI50, CellTiterBlue, Panc10.05 K-Ras G12D, read-out: 72 hr Cell Viability Panc10.05 (G12D). The method, then:
as §1, §2

In the next experiment the target is T1, K-Ras G12D (Homo sapiens, UniProt P01116, G12D).
T1 construct: expressed in transfected cells; host or cells: 293H cells
T1 sequence (P01116 whole entry G12D): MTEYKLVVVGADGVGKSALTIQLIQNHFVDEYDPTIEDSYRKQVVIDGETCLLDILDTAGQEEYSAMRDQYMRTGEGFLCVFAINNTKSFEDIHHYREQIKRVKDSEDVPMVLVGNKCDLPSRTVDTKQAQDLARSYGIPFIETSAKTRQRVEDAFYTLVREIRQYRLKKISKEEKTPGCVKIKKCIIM
Kind of experiment: G-LISA Ras activation, 293H cells transfected with G12D mutant. As to conditions: compound 1 hour. The method, then: (§3) 293H cells were seeded in 6-wells at 0.6×10^6 cells per well and transfected next day with 5 μg of Ras wild-type, or G12C, G12D or G12V mutant DNA plasmid vector using transfection reagent Lipofectamine 3000. Next day cells were treated with 3.125-25 μM of Ras compounds for 1 hour. Wild-type transfected cells were subsequently treated with 100 ng/ml EGF for 2 minutes. Cells were washed once in ice-cold PBS, lysed in complete lysis buffer on ice, and processed by G-LISA according to Cytoskeleton protocol.

In the next experiment the test system is Panc1-G12D. Kind of experiment: Viability assay (CellTiterBlue, 72 hr) Panc1. Conditions: Homo sapiens, PANC-1, GI50, CellTiterBlue, Panc1 K-Ras G12D, read-out: 72 hr Cell Viability Panc1 (G12D). The method, then:
as §1, §2

A further experiment has as its target T2, wild type K-Ras (Homo sapiens, UniProt P01116).
T2 construct: expressed in transfected cells; host or cells: 293H cells
The experiment is described as follows: G-LISA Ras activation, 293H cells transfected with Ras wild-type, EGF stimulated. Conditions: compound 1 hour, then 100 ng/ml EGF 2 minutes. The protocol: as §3

Experiment [3] relates to Ishikawa (K-Ras wild type cell line). The experiment is described as follows: Viability assay (CellTiterBlue, 72 hr) Ishikawa. As to conditions: Homo sapiens, GI50, CellTiterBlue, Ishikawa K-Ras wild-type. The method, then: as §1, §2
Experiment [4] has as its system phospho-ERK in Panc1 (G12D). Kind of experiment: In-Cell Western phospho-ERK, Panc1. As to conditions: Homo sapiens, PANC-1, 1 h; Panc1, one hour treatment; read-out: In-Cell Western Panc1 (G12D) Erk (P). The protocol: (§4) In-cell phosphorylation assays for Erk and Akt were performed on several of the compounds and exemplary results are shown in Table 3 below using HCC827 and A375 cell lines for wild type K-Ras and Panc1 and Panc10.05 cell lines for G12D K-Ras mutants. Results are expressed in μM and corresponding structures are shown in FIGS. 2A-2G and Examples 1-152, above.
(§5) Cells are seeded in complete medium into black sided, clear-bottom 384-well microplates at 3000 cells/[…]/well. Plates are returned to 37° C. CO2 incubator for 18 hr. Drug is made as 200× in DMSO and diluted into medium to 10×. To each well is added 4 ul 10× test article or controls, and plates are returned to the incubator. Final assay DMSO concentration is 0.5%. After one hour, cells are fixed in formaldehyde, rinsed & permeabilized with triton X-100, and blocked with BSA/Goat serum blocking solution. Primary phospho-Akt and phospho-ERK antibodies are added and plates are incubated overnight at 4° C. Plates are rinsed with Tween-20 wash buffer and secondary antibody (Goat anti-rabbit, Thermofisher) is added. After 2 hours, plates are rinsed in Tween-20 wash buffer, and then PBS. Plates are imaged on the Celigo (Nexcelom) and cellular fluorescence is quantitated. Full inhibition of phospho-Akt is achieved with 1 uM BEZ235 (Sellekchem), while full inhibition of phospho-ERK is achieved with 1 uM MEK Inhibitor II Calbiochem). EC50 values are calculated using Graphpad Prism.

Experiment [5] concerns phospho-ERK in Panc10.05 (G12D). The experiment is described as follows: In-Cell Western phospho-ERK, Panc10.05. Conditions: Homo sapiens, Panc1005, 1 h; Panc10.05, one hour treatment; read-out: In-Cell Western Panc10.05 (G12D) Erk (P). The protocol:
as §4, §5

Experiment [6] deals with phospho-Akt in Panc1 (G12D). The experiment is described as follows: In-Cell Western phospho-Akt, Panc1. Conditions: Homo sapiens, PANC-1, 1 h; Panc1, one hour treatment; read-out: In-Cell Western Panc1 (G12D) Akt (P). The method, then:
as §4, §5

Experiment [7] relates to phospho-Akt in Panc10.05 (G12D). The experiment is described as follows: In-Cell Western phospho-Akt, Panc10.05. As to conditions: Homo sapiens, Panc1005, 1 h; Panc10.05, one hour treatment; read-out: In-Cell Western Panc10.05 (G12D) Akt (P). The method, then: as §4, §5

T2 sequence (P01116 whole entry): as the sequence (P01116 whole entry G12D) above, with D12G counted along it

Take `CCn1cc(C(=O)Nc2nc(-c3ccc4c(c3)CCC(=O)N4)cs2)c(C)n1` [Compound 25, 1-ethyl-3-methyl-N-(4-(2-oxo-1,2,3,4-tetrahydroquinolin-6-yl)thiazol-2-yl)-1H-pyrazole-4-carboxamide]: the IC50 was found to be 2 µM in the experiment with HCT116-G31D; 2 µM in experiment [1]; 7 µM in experiment [2]; 0.774 µM in the experiment on Panc10.05-G12D; 6.6 µM on K-Ras G12D; 2 µM in the experiment with Panc1-G12D. For the same compound, the IC50 is 10.7 µM against wild type K-Ras and 1.1 µM in [3].

For the compound `Cc1nc(C)c(C(=O)Nc2nc(-c3ccc4c(c3)CCC(=O)N4Cc3cccc4c3OCO4)cs2)o1` [Compound 73, N-(4-(1-(benzo[d][1,3]dioxol-4-ylmethyl)-2-oxo-1,2,3,4-tetrahydroquinolin-6-yl)thiazol-2-yl)-2,4-dimethyloxazole-5-carboxamide], the IC50 in the experiment with HCT116-G31D turned out to be 3 µM; in experiment [1] it was 3 µM; in experiment [2] it was 12 µM; in the experiment with Panc10.05-G12D, 0.733 µM; against K-Ras G12D it was 19.2 µM; in the experiment with Panc1-G12D, 7 µM. Further, the IC50 against wild type K-Ras is 18.8 µM; in experiment [3], 4 µM.

As for `Cc1nc(C)c(C(=O)Nc2nc(-c3ccc4c(c3)CCC(=O)N4Cc3cncc4ccccc34)cs2)o1` [Compound 82, N-(4-(1-(isoquinolin-4-ylmethyl)-2-oxo-1,2,3,4-tetrahydroquinolin-6-yl)thiazol-2-yl)-2,4-dimethyloxazole-5-carboxamide], the IC50 in the experiment on HCT116-G31D was 10 µM; in experiment [1], 13 µM; in [2], more than 25 µM; in the experiment with Panc10.05-G12D, more than 25 µM; against K-Ras G12D it was 24.6 µM; in the experiment with Panc1-G12D, more than 25 µM. The IC50 was more than 25 µM on wild type K-Ras and 4 µM in experiment [3].

For `Cc1nc(C)c(C(=O)Nc2nc(-c3ccc4c(c3)CCC(=O)N4CC3CCCN(C(=O)OC(C)(C)C)C3)cs2)o1` (stereo not drawn) [Compound 86, tert-butyl 3-((6-(2-(2,4-dimethyloxazole-5-carboxamido)thiazol-4-yl)-2-oxo-3,4-dihydroquinolin-1(2H)-yl)methyl)piperidine-1-carboxylate], the IC50 is 2 µM in the experiment on HCT116-G31D; 2 µM in experiment [1]; 2 µM in experiment [2]; 5 µM in the experiment with Panc10.05-G12D; 6.1 µM against K-Ras G12D; 5 µM with Panc1-G12D. Moreover, the IC50 on wild type K-Ras came out at 16.7 µM.

Regarding `Cn1nc2ccccc2c1C(=O)Nc1nc(-c2ccc3c(c2)CCC(=O)N3)cs1` [Compound 26, 2-methyl-N-(4-(2-oxo-1,2,3,4-tetrahydroquinolin-6-yl)thiazol-2-yl)-2H-indazole-3-carboxamide], the IC50 in the experiment with HCT116-G31D was found to be 1 µM; in experiment [1], 1.4 µM; in experiment [2] it was 6 µM; with Panc10.05-G12D, 1.1 µM; on K-Ras G12D, 10.6 µM; in the experiment with Panc1-G12D it was 2 µM. For the same compound, the IC50 on wild type K-Ras was more than 25 µM; in [3], less than 0.8 µM.

For the compound `Cc1nc(C)c(C(=O)Nc2nc(-c3ccc4c(c3)CCC(=O)N4Cc3cccc(N)c3)cs2)o1` [Compound 90, N-(4-(1-(3-aminobenzyl)-2-oxo-1,2,3,4-tetrahydroquinolin-6-yl)thiazol-2-yl)-2,4-dimethyloxazole-5-carboxamide], the IC50 was found to be 3 µM in the experiment on HCT116-G31D; 4 µM in [1]; 4 µM in experiment [2]; 8 µM in the experiment with Panc10.05-G12D; 14.2 µM against K-Ras G12D; 10 µM with Panc1-G12D. Also, the IC50 against wild type K-Ras came out at 16.6 µM.

Take `Cc1nc(C2CCOC2)oc1C(=O)Nc1nc(-c2ccc3c(c2)CCC(=O)N3Cc2cccnc2)cs1` (stereo not drawn) [Compound 85, 4-methyl-N-(4-(2-oxo-1-(pyridin-3-ylmethyl)-1,2,3,4-tetrahydroquinolin-6-yl)thiazol-2-yl)-2-(tetrahydrofuran-3-yl)oxazole-5-carboxamide]: the IC50 in the experiment with HCT116-G31D was 4 µM; in experiment [1], 5 µM; in [2], 5 µM; with Panc10.05-G12D, 6 µM; against K-Ras G12D it was 7.6 µM; with Panc1-G12D, 8 µM. The compound also showed an IC50 at wild type K-Ras of 23.4 µM.

For `Cc1nc(C)c(C(=O)Nc2nc(-c3ccc4c(c3)CCC(=O)N4)cs2)s1` [Compound 1, 2,4-dimethyl-N-(4-(2-oxo-1,2,3,4-tetrahydroquinolin-6-yl)thiazol-2-yl)thiazole-5-carboxamide], the IC50 at K-Ras G12D stood at 9.3 µM; against wild type K-Ras, 3.8 µM.

On to `Cc1nc(CN)sc1C(=O)Nc1nc(-c2ccc3c(c2)CCC(=O)N3)cs1` [Compound 147, 2-(aminomethyl)-4-methyl-N-(4-(2-oxo-1,2,3,4-tetrahydroquinolin-6-yl)thiazol-2-yl)thiazole-5-carboxamide], for which the IC50 in the experiment on HCT116-G31D is more than 25 µM; with Panc10.05-G12D, 12 µM; against K-Ras G12D it was more than 25 µM; in the experiment on Panc1-G12D, 17 µM; in experiment [3], more than 25 µM. The EC50 in experiment [4] is 12 µM; in experiment [5], 14 µM; in experiment [6], more than 25 µM; in experiment [7] it was more than 25 µM.

Turning to `COc1cccc(CN2C(=O)CCc3cc(-c4csc(NC(=O)c5oc(C)nc5C)n4)ccc32)c1` [Compound 76, N-(4-(1-(3-methoxybenzyl)-2-oxo-1,2,3,4-tetrahydroquinolin-6-yl)thiazol-2-yl)-2,4-dimethyloxazole-5-carboxamide], the IC50 with HCT116-G31D was found to be 4 µM; in experiment [1], 2 µM; in experiment [2] it was 17 µM; with Panc10.05-G12D it was 0.679 µM; at K-Ras G12D it was 13.9 µM; in the experiment with Panc1-G12D it was 5 µM. Moreover, the IC50 was 12.6 µM against wild type K-Ras and 5 µM in experiment [3].

Take `Cc1nc(C)c(C(=O)Nc2nc(-c3ccc4c(c3)CCC(=O)N4)cs2)o1` [Compound 4, 2,4-dimethyl-N-(4-(2-oxo-1,2,3,4-tetrahydroquinolin-6-yl)thiazol-2-yl)oxazole-5-carboxamide]: the IC50 against K-Ras G12D turned out to be 10.9 µM; against wild type K-Ras, 25.1 µM.

Regarding `Cc1nc(C2CCOC2)sc1C(=O)Nc1nc(-c2ccc3c(c2)CCC(=O)N3Cc2cccnc2)cs1` (stereo not drawn) [Compound 84, 4-methyl-N-(4-(2-oxo-1-(pyridin-3-ylmethyl)-1,2,3,4-tetrahydroquinolin-6-yl)thiazol-2-yl)-2-(tetrahydrofuran-3-yl)thiazole-5-carboxamide], the IC50 was 4 µM in the experiment on HCT116-G31D; 4 µM in experiment [1]; 3 µM in experiment [2]; 7 µM with Panc10.05-G12D; 4.9 µM at K-Ras G12D; 7 µM in the experiment with Panc1-G12D. The compound further showed an IC50 against wild type K-Ras of 19.9 µM.
